Each structure is given as a SMILES string. pIC50: −log10 of the molar value.

For the experiment, the target named is T1, prostanoid EP3 receptors (Homo sapiens, UniProt P43115).
T1 sequence (P43115 1-365 isoform P43115-3): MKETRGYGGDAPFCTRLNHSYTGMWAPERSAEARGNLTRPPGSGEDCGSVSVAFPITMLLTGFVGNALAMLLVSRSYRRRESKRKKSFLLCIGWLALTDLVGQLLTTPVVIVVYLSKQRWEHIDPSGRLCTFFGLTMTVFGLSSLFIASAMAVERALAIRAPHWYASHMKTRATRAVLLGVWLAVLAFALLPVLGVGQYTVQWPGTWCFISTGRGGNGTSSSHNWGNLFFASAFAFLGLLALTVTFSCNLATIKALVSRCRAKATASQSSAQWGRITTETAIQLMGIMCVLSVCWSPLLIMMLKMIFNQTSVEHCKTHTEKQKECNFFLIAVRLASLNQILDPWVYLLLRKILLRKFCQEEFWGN
The experiment in a line: binding on prostanoid EP3 receptors (method of Abramovitz et al.). As to conditions: read-out: Activity (EP3 receptor binding IC50). The protocol:
The compounds of the invention may be assayed for their binding on prostanoid EP3 receptors according to the method of Abramovitz et al. [Bioch. Biophys. Actas 1473, 285-293 (2000)]. All of the examples in the tables below have been synthesized, characterized and tested for EP3 receptor binding.
The compounds of the invention were assayed for their binding on prostanoid EP3 receptors according to the method of Abramovitz et al. [Bioch. Biophys. Acta, 1473, 285-293 (2000)]. […] Compounds with IC50<1 μM are shown as +++; compounds with IC50<1-10 μM are shown as ++; and compounds with IC50>10 μM are shown as +.
Take `Cc1cn(Cc2ccc(F)c(F)c2)c2c(-c3cc(NS(=O)(=O)c4cc(Cl)c(Cl)s4)no3)cc(F)cc12` [Compound B31, 4,5-Dichloro-thiophene-2-sulfonic acid {5-[1-(3,4-difluoro-benzyl)-5-fluoro-3-methyl-1H-indol-7-yl]-isoxazol-3-yl}-amide]: the pIC50 (in general, −log10 of the IC50, conventionally taken in molar units) was greater than 6.00. Regarding `Cc1cn(Cc2ccc(F)c(F)c2)c2c(-c3cc(NS(=O)(=O)c4ccc(F)c(F)c4)no3)cc(F)cc12` [Compound B32, N-{5-[1-(3,4-Difluoro-benzyl)-5-fluoro-3-methyl-1H-indol-7-yl]-isoxazol-3-yl}-3,4-difluoro-benzenesulfonamide], the pIC50 is greater than 6.00.

Turning to `Cc1cn(Cc2ccc(F)c(F)c2)c2c(-c3cc(NS(=O)(=O)c4cc(F)c(F)cc4F)no3)cc(F)cc12` [Compound B33, N-{5-[1-(3,4-Difluoro-benzyl)-5-fluoro-3-methyl-1H-indol-7-yl]-isoxazol-3-yl}-2,4,5-trifluoro-benzenesulfonamide], the pIC50 was greater than 6.00. Then `Cc1cn(Cc2ccc(Cl)cc2Cl)c2c(-c3cc(NS(=O)(=O)c4cc(Cl)c(Cl)s4)no3)cc(F)cc12` [Compound B34, 4,5-Dichloro-thiophene-2-sulfonic acid {5-[1-(2,4-dichloro-benzyl)-5-fluoro-3-methyl-1H-indol-7-yl]-isoxazol-3-yl}-amide], with greater than 6.00; and `Cc1cn(Cc2ccc(Cl)cc2Cl)c2c(-c3cc(NS(=O)(=O)c4ccc(F)c(F)c4)no3)cc(F)cc12` [Compound B35, N-{5-[1-(2,4-Dichloro-benzyl)-5-fluoro-3-methyl-1H-indol-7-yl]-isoxazo 1-3-yl}-3,4-difluoro-benzenesulfonamide], with greater than 6.00; and `Cc1cn(Cc2ccc(Cl)cc2Cl)c2c(-c3cc(NS(=O)(=O)c4cc(F)c(F)cc4F)no3)cc(F)cc12` [Compound B36, N-{5-[1-(2,4-Dichloro-benzyl)-5-fluoro-3-methyl-1H-indol-7-yl]-isoxazol-3-yl}-2,4,5-trifluoro-benzenesulfonamide], with greater than 6.00.

As for `Cc1cn(Cc2ccc(Cl)cc2Cl)c2c(-c3cc(NS(=O)(=O)c4ccc(Cl)c(Cl)c4)no3)cc(F)cc12` [Compound B37, 3,4-Dichloro-N-{5-[1-(2,4-dichloro-benzyl)-5-fluoro-3-methyl-1H-indol-7-yl]-isoxazol-3-yl}-benzenesulfonamide], the pIC50 is greater than 6.00. As for `Cc1cn(Cc2ccc3ccccc3c2)c2c(-c3cc(NS(=O)(=O)c4ccc(F)c(F)c4)no3)cc(F)cc12` [Compound B38, 3,4-Difluoro-N-[5-(5-fluoro-3-methyl-1-naphthalen-2-ylmethyl-1H-indol-7-yl)-isoxazol-3-yl]-benzenesulfonamide], the figure is greater than 6.00; as for `Cc1cn(Cc2ccc3ccccc3c2)c2c(-c3cc(NS(=O)(=O)c4cc(F)c(F)cc4F)no3)cc(F)cc12` [Compound B39, 2,4,5-Trifluoro-N-[5-(5-fluoro-3-methyl-1-naphthalen-2-ylmethyl-1H-indol-7-yl)-isoxazol-3-yl]-benzenesulfonamide], greater than 6.00; as for `Cc1cn(Cc2ccc3ccccc3c2)c2c(-c3cc(NS(=O)(=O)c4ccc(Cl)c(Cl)c4)no3)cc(F)cc12` [Compound B40, 3,4-Dichloro-N-[5-(5-fluoro-3-methyl-1-naphthalen-2-ylmethyl-1H-indol-7-yl)-isoxazol-3-yl]-benzenesulfonamide], greater than 6.00. As for `Cc1cn(Cc2ccc3ccccc3c2)c2c(-c3cc(NS(=O)(=O)c4cc(Cl)c(Cl)s4)no3)cc(F)cc12` [Compound B41], the figure is greater than 6.00; as for `Cc1cn(Cc2ccc(Cl)cc2Cl)c2c(-c3nc(NS(=O)(=O)c4cc(Cl)c(Cl)s4)no3)cc(F)cc12` [Compound B42, 5-Dichloro-thiophene-2-sulfonic acid {5-[1-(2,4-dichloro-benzyl)-5-fluoro-3-methyl-1H-indol-7-yl]-[1,2,4]oxadiazol-3-yl}-amide], greater than 6.00; as for `Cn1cc(-c2csc(NS(=O)(=O)c3cc(Cl)c(Cl)s3)n2)c2c(Oc3ccc4ccccc4c3)cccc21` [Compound B43, 4,5-Dichloro-thiophene-2-sulfonic acid {4-[1-methyl-4-(naphthalen-2-yloxy)-1H-indol-3-yl]-thiazol-2-yl}-amide], 5.00 to 6.00. Then `Cn1cc(-c2csc(NS(=O)(=O)c3ccc(F)c(F)c3)n2)c2c(Oc3ccc4ccccc4c3)cccc21` [Compound B44, 3,4-Difluoro-N-{4-[1-methyl-4-(naphthalen-2-yloxy)-1H-indol-3-yl]-thiazol-2-yl}-benzenesulfonamide], with 5.00 to 6.00.

Regarding `Cn1cc(-c2cc(NS(=O)(=O)c3ccc(F)c(F)c3)no2)c2c(Oc3ccc4ccccc4c3)cccc21` [Compound B45, 3,4-Difluoro-N-{5-[1-methyl-4-(naphthalen-2-yloxy)-1H-indol-3-yl]-isoxazol-3-yl}-benzenesulfonamide], the pIC50 was greater than 6.00. For `Cc1cn(Cc2ccc(Cl)cc2Cl)c2c(-c3ccc(NS(=O)(=O)c4cc(Cl)c(Cl)s4)nc3)cc(F)cc12` [Compound B46, 4,5-Dichloro-thiophene-2-sulfonic acid {5-[1-(2,4-dichloro-benzyl)-5-fluoro-3-methyl-1H-indol-7-yl]-pyridin-2-yl}-amide], the pIC50 was greater than 6.00. As for `COc1cccc(CN2C(=O)CC3(C)CCCC(c4csc(NS(=O)(=O)c5ccc(F)c(F)c5)n4)=C23)c1` (centres unmarked) [Compound B47, 3,4-Difluoro-N-{4-[1-(3-methoxy-benzyl)-3a-methyl-2-oxo-2,3,3a,4,5,6-hexahydro-1H-indol-7-yl]-thiazol-2-yl}-benzenesulfonamide], the pIC50 is greater than 6.00.
